The values that follow are results of earlier work, collected in patent US7662360B2, “Conjugates of N-hydroxypropymethacrylamide-methacrylate copolymer with nuclide activation agent and/or anti-cancer compounds” (Psimei Pharmaceuticals PLC, priority 2002, dated 2010).

The conditions of this data set: dose BPA 900-1200 mg/kg (30 mg/ml), CuTCPH 200 mg/kg (6 mg/ml), BSH dose not given.

`N[C@@H](Cc1ccc(B(O)O)cc1)C(=O)O` [BPA, 4-dihydroxyborylphenylalanine]: the Absolute tumour concentration was 16.5 µg/g.

Consider “sodium mnercaptoundecahydrododecaborate [BSH]”, for which the Absolute tumour concentration was 6.9 µg/g.
